Here are results for three molecules from patent US20220296667A1, “COMPOSITION FOR A[…] TREATING NARCOLEPSY, […] RICE BRAN POWDER AS ACTIVE INGREDIENT, AND PREPARATION METHOD THEREFOR” (RAPHAGEN, priority 2019, published 2022).

The conditions of data set [1]: background art; cited from earlier work.
The test system of data set [2] is zebrafish. The data set is described as follows: Dark/light transition of zebrafish. As to conditions: dark and light conditions at 10-minute intervals, distance moved at 2-minute intervals; FIGS. 3, 4, 5. Format: in vivo. As for the experimental part: The dark/light transition of zebrafish treated with the fermented rice bran powder obtained according to Example 1 was measured. Specifically, dark and light conditions were given at 10-minute intervals, and graphs for the distance moved at 2-minute intervals were measured (see FIGS. 3, 4, and 5).

The subject of data set [3] is zebrafish. As to conditions: zebrafish whose brain is damaged by PTZ or the like; stated as known; cited from earlier work.

As to `O=C(O)CCCO` [GHB, Gamma hydroxybutyrate], in data set [1], the “half-life (in words)” value is listed as “short half-life”. Regarding `C1CCc2nnnn2CC1` [PTZ, Pentylenetetrazol], the “behavior pattern to dark/light (distance moved)” value in data set [2] is reported as “moved regardless of the light/dark division”. Further, in data set [3], the color recognition entry is listed as “color cannot be normally recognized”. On to `NC(=O)C[S+]([O-])C(c1ccccc1)c1ccccc1` (stereo not shown) [modafinil, Modafinil], for which the half-life in data set [1] was at least 15 h.
